Among the data in publication PMC4647570, “Ketoreductase TpdE from Rhodococcus jostii TMP1: characterization and application in the synthesis of chiral alcohols” (PeerJ, 2015) are Km values, retold here.

This assay has as its system T1, TpdE.
T1 construct: C-terminal His6 tag, pET-tpdE in E. coli BL21 (DE3), Ni-chelating column, ~30 kDa on SDS-PAGE; residues T15, G16, G20, G22, N119, S148, Y161, K165
Briefly: NADPH oxidation at […] nm, Michaelis-Menten fit. It is filed as biochemical, Rhodococcus jostii. The following applies: 0.2 mM NADPH, 50 mM phosphate pH 7.2, 30 °C; apparent.
As for `CC(=O)C(C)=O` [Diacetyl], the Km came out at 1.9 ± 0.3 mM.

As to `CC(=O)C(C)(C)O` [3-Hydroxy-3-methyl-2-butanone], the Km stood at 14.6 ± 4 mM.

Take `CCCC(=O)C(C)=O` [2,3-Hexanedione]: the Km was 2.2 ± 0.4 mM.

As for `CCCC(=O)OC(C)C(C)=O` (stereo not drawn) [Butan-3-one-2-yl-butanoate], the Km was 0.76 ± 0.1 mM.

On to `CCC(=O)C(C)=O` [2,3-Pentanedione], for which the Km worked out at 0.98 ± 0.2 mM.

Turning to `CCCCC(=O)C(C)=O` [2,3-Heptanedione], the Michaelis constant (Km) came out at 6.9 ± 0.9 mM.

For the compound `CCC(=O)C(=O)CC` [3,4-Hexanedione], the Km is 3.3 ± 0.6 mM.

Turning to `CC(=O)C(C)O` (stereo not drawn) [Acetoin], the Michaelis constant (Km) worked out at 5 ± 0.3 mM.

As for `CC(=O)C(C)S` (stereo not drawn) [3-Mercapto-2-butanone], the Michaelis-Menten constant (Km) was 14.4 ± 4.8 mM.
